Ends that are not written are not given here.

Drawing on US20080318838A1, “PEPTIDES” (priority 1992, published 2008), this text covers biological activity for one substance.

The nature of this assay: biological activity of recombinantly produced (1-38)PTH. As to conditions: recombinant product from Gen55-Asn-Gly-Pro-(1-38)PTH fusion. The protocol:
From a non-optimized 20 litre fermentation a 78 g wet cell pellet with 50% expression of the fusion protein is harvested. Following lysis and centrifugation, 18 g of “90% pure” inclusion bodies are obtained. Following the acid stop step and centrifugation/filtration about 470 mg Gly-pro-PTH are detected. After HPLC on C4-Vydac, 355 mg of peptide are detected, decreasing to 321 mg after SP-Sepharose cation-exchange. Enzymatic removal of the Gly and Pro residues is carried out at 2 mg/ml.

As for “hPTH-(1-38)-OH (SVSEIQLMHNLGKHLNSMERVEWLRKKLQDVHNFVALG-OH; UniProt P01270 32-69, looked up, fragment) [(1-38)PTH, natural human PTH fragment 1-38, produced recombinantly from a gp55 fusion protein in E. coli]”, the biological activity entry is “fully biologically active”.
